What was measured:
[1] = test system: beet armyworm (BAW; Spodoptera exigua: Lepidoptera); assay: 128-well diet tray assay on beet armyworm (BAW 50); type: in vivo; settings: for BAW 50 ug/cm2: 128-well diet tray assay, 50 μg/cm^2 of test compound on diet, second instar BAW larvae, mortality class
Summary of the method: (§1)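 Two diet-incorporation-style surface tests were run. Eggs infested treated diet (12 μg/well) in plates incubated dark at 29° C, with mortality taken on day 6 from six replicates. Separately, second-instar larvae fed on treated diet (50 μg/cm^2) at 25° C, 14:10 L:D, with six-day mortality averaged over eight wells.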

[2] = test system: beet armyworm (BAW; Spodoptera exigua: Lepidoptera); assay: 96-well microtiter plate-based high throughput (HTS) diet bioassay on beet armyworm (BAW HTS); type: in vivo; settings: for BAW HTS: BAW eggs, 12 μg test compound per well, mortality at 6 d post-treatment, mortality class
Summary of the method: as §1

[3] = 96-well microtiter plate HTS diet assay

Compound | BAW 50 ug/cm2 [1] | BAW HTS ([2]; 96-well HTS diet assay) | BAW HTS [2, 3] | pest or weed control at 50 µg/cm2, 50 µg/cm2 ([1]; Spodoptera exigua, 144 h, read-out: BAW 50 ug/cm2) | pest or weed control at 12 µg/well, 12 µg/well ([2]; Spodoptera exigua, 144 h, read-out: BAW HTS)
CO[C@@H]1[C@@H](OC)[C@H](C)O[C@H](OC(=O)Nc2ccc(-c3ncn(-c4ccc(OC(F)(F)C(F)(F)F)cc4)n3)cc2)[C@@H]1OC [Compound 208] | A (the compound was tested and at least 50 percent mortality was observed) | A (the compound was tested and at least 50 percent mortality was observed) | A (the compound was tested and at least 50 percent mortality was observed) | – | –
CCCO[C@@H]1[C@@H](OC)[C@H](C)O[C@@H](OC(=O)Nc2ccc(-c3ncn(-c4ccc(OC(F)(F)F)cc4)n3)cc2)[C@@H]1OC [Compound 209] | A (the compound was tested and at least 50 percent mortality was observed) | A (the compound was tested and at least 50 percent mortality was observed) | A (the compound was tested and at least 50 percent mortality was observed) | – | –
CCO[C@@H]1[C@@H](OC)[C@H](C)O[C@H](OC(=O)Nc2ccc(-c3ncn(-c4ccc(OC(F)(F)F)cc4)n3)cc2)[C@@H]1OC [Compound 210] | A (the compound was tested and at least 50 percent mortality was observed) | A (the compound was tested and at least 50 percent mortality was observed) | A (the compound was tested and at least 50 percent mortality was observed) | – | –
CCCO[C@@H]1[C@@H](OC)[C@H](C)O[C@@H](OC(=O)Nc2ccc(-c3ncn(-c4ccc(OC(F)(F)C(F)(F)C(F)(F)F)cc4)n3)cc2)[C@@H]1OC [Compound 216] | A (the compound was tested and at least 50 percent mortality was observed) | A (the compound was tested and at least 50 percent mortality was observed) | A (the compound was tested and at least 50 percent mortality was observed) | – | –
CCO[C@@H]1[C@@H](OC)[C@H](C)O[C@@H](OC(=O)Nc2ccc(-c3nc(CC(C)C)n(-c4ccc(OC(F)(F)F)cc4)n3)cc2)[C@@H]1OC [Compound 219] | A (the compound was tested and at least 50 percent mortality was observed) | B (either (1) the compound was tested and less than 50 percent mortality was observed or (2) the compound was not tested) | B (either (1) the compound was tested and less than 50 percent mortality was observed or (2) the compound was not tested) | – | –
C=C(C)c1nc(-c2ccc(NC(=O)O[C@@H]3O[C@@H](C)[C@H](OC)[C@@H](OCC)[C@H]3OC)cc2)nn1-c1ccc(OC(F)(F)F)cc1 [Compound 220] | A (the compound was tested and at least 50 percent mortality was observed) | B (either (1) the compound was tested and less than 50 percent mortality was observed or (2) the compound was not tested) | B (either (1) the compound was tested and less than 50 percent mortality was observed or (2) the compound was not tested) | – | –
CCO[C@@H]1[C@@H](OC)[C@H](C)O[C@@H](OC(=O)Nc2ccc(-c3nc(CCSC)n(-c4ccc(OC(F)(F)F)cc4)n3)cc2)[C@@H]1OC [Compound 221] | A (the compound was tested and at least 50 percent mortality was observed) | B (either (1) the compound was tested and less than 50 percent mortality was observed or (2) the compound was not tested) | B (either (1) the compound was tested and less than 50 percent mortality was observed or (2) the compound was not tested) | – | –
CCO[C@@H]1[C@@H](OC)[C@H](C)O[C@@H](OC(=O)Nc2ccc(-c3nc(C(F)(F)F)n(-c4ccc(OC(F)(F)F)cc4)n3)cc2)[C@@H]1OC [Compound 222] | A (the compound was tested and at least 50 percent mortality was observed) | B (either (1) the compound was tested and less than 50 percent mortality was observed or (2) the compound was not tested) | B (either (1) the compound was tested and less than 50 percent mortality was observed or (2) the compound was not tested) | – | –
CCO[C@@H]1[C@@H](OC)[C@H](C)O[C@@H](OC(=O)Nc2ccc(-c3ncn(-c4ccc(OC(F)(F)F)cc4)n3)cc2Br)[C@@H]1OC [Compound 223] | A (the compound was tested and at least 50 percent mortality was observed) | B (either (1) the compound was tested and less than 50 percent mortality was observed or (2) the compound was not tested) | B (either (1) the compound was tested and less than 50 percent mortality was observed or (2) the compound was not tested) | – | –
CCO[C@@H]1[C@@H](OC)[C@H](C)O[C@@H](OC(=O)Nc2ccc(-c3ncn(-c4ccc(OC(F)(F)C(F)(F)F)cc4)n3)cc2Br)[C@@H]1OC [Compound 224] | A (the compound was tested and at least 50 percent mortality was observed) | B (either (1) the compound was tested and less than 50 percent mortality was observed or (2) the compound was not tested) | B (either (1) the compound was tested and less than 50 percent mortality was observed or (2) the compound was not tested) | – | –
CCO[C@@H]1[C@@H](OC)[C@H](C)O[C@@H](OC(=O)Nc2ccc(-c3ncn(-c4ccc(OC(F)(F)C(F)(F)C(F)(F)F)cc4)n3)cc2)[C@@H]1OC [Compound 225] | A (the compound was tested and at least 50 percent mortality was observed) | B (either (1) the compound was tested and less than 50 percent mortality was observed or (2) the compound was not tested) | B (either (1) the compound was tested and less than 50 percent mortality was observed or (2) the compound was not tested) | – | –
CCO[C@@H]1[C@@H](OC)[C@H](C)O[C@@H](OC(=O)Nc2ccc(-n3c(C(=O)OC)nn(-c4ccc(OC(F)(F)F)cc4)c3=O)cc2)[C@@H]1OC [Compound 226] | B (either (1) the compound was tested and less than 50 percent mortality was observed or (2) the compound was not tested) | B (either (1) the compound was tested and less than 50 percent mortality was observed or (2) the compound was not tested) | B (either (1) the compound was tested and less than 50 percent mortality was observed or (2) the compound was not tested) | – | –
CCO[C@@H]1[C@@H](OC)[C@H](C)O[C@H](OC(=O)Nc2ccc(-n3c(C(=O)OC)nn(-c4ccc(OC(F)(F)F)cc4)c3=O)cc2)[C@@H]1OC [Compound 227] | B (either (1) the compound was tested and less than 50 percent mortality was observed or (2) the compound was not tested) | B (either (1) the compound was tested and less than 50 percent mortality was observed or (2) the compound was not tested) | B (either (1) the compound was tested and less than 50 percent mortality was observed or (2) the compound was not tested) | – | –
CCO[C@@H]1[C@@H](OC)[C@H](C)O[C@@H](OC(=O)Nc2ccc(-n3cnn(-c4ccc(OC(F)(F)F)cc4)c3=O)cc2)[C@@H]1OC [Compound 228] | B (either (1) the compound was tested and less than 50 percent mortality was observed or (2) the compound was not tested) | B (either (1) the compound was tested and less than 50 percent mortality was observed or (2) the compound was not tested) | B (either (1) the compound was tested and less than 50 percent mortality was observed or (2) the compound was not tested) | – | –
CO[C@@H]1[C@@H](OC)[C@H](C)O[C@@H](OC(=O)Nc2ccc(-n3cnc(-c4ccc(C(F)(F)F)cc4)n3)cc2)[C@@H]1OC [Compound 229] | A (the compound was tested and at least 50 percent mortality was observed) | A (the compound was tested and at least 50 percent mortality was observed) | A (the compound was tested and at least 50 percent mortality was observed) | – | –
CO[C@@H]1[C@@H](OC)[C@H](C)O[C@@H](OC(=O)Nc2ccc(-c3nnc(-c4ccc(Cl)cc4Cl)o3)cc2)[C@@H]1OC [Compound 230] | A (the compound was tested and at least 50 percent mortality was observed) | B (either (1) the compound was tested and less than 50 percent mortality was observed or (2) the compound was not tested) | B (either (1) the compound was tested and less than 50 percent mortality was observed or (2) the compound was not tested) | – | –
CO[C@@H]1[C@@H](OC)[C@H](C)O[C@@H](OC(=O)Nc2ccc(-c3ccnc(-c4ccc(C(F)(F)F)cc4)n3)cc2)[C@@H]1OC [Compound 232, {4-[2-(4-trifluoromethylphenyl)-pyrimidin-4-yl]-phenyl}-carbamic acid (2S,3R,4R,5S,6S)-3,4,5-trimethoxy-6-methyl-tetrahydropyran-2-yl ester] | A (the compound was tested and at least 50 percent mortality was observed) | – | A (the compound was tested and at least 50 percent mortality was observed) | > 50% | > 50%
CO[C@@H]1[C@@H](OC)[C@H](C)O[C@@H](OC(=O)Nc2ccc(-c3cc(C(F)(F)C(F)(F)C(F)(F)F)nc(-c4ccc(C(F)(F)F)cc4)n3)cc2)[C@@H]1OC [Compound 233] | A (the compound was tested and at least 50 percent mortality was observed) | B (either (1) the compound was tested and less than 50 percent mortality was observed or (2) the compound was not tested) | B (either (1) the compound was tested and less than 50 percent mortality was observed or (2) the compound was not tested) | – | –
